Reference: patent US6362180B1, “Imidazopyridines for the treatment of neurological disorders” (Bristol-Myers Squibb Pharma Company, priority 1997, dated 2002)

Compound | melting point
CCCCC(CC)n1c(CC)nc2c(-c3c(C)cc(C)cc3C)ncnc21 (stereo not drawn) [Example 2, 8-Ethyl-9-(1-ethylpentyl)-6-(2,4,6-trimethylphenyl)purine] | 99 to 100 °C
CCc1nc2c(-c3ccc(OC)cc3Cl)ncnc2n1C(C1CC1)C1CC1 [Example 831, 6-(2-Chloro-4-methoxyphenyl)-9-dicyclopropylmethyl-8-ethylpurine] | 139 to 140 °C
CCc1nc2c(-c3cc4c(cc3C)OCC4)ncnc2n1C(C1CC1)C1CC1 [Example 5001, 9-Dicyclopropylmethyl-8-ethyl-6-(6-methyl-2,3-dihydrobenzofuran-5-yl)purine] | 147 to 148 °C
CCc1nc2c(-c3cc4ccoc4cc3C)ncnc2n1C(C1CC1)C1CC1 [Example 5201, 9-dicyclopropylmethyl-8-ethyl-6-(6-methylbenzofuran-5-yl)purine] | 139 to 141 °C
CCc1nc2c(-c3cc4cc(Br)oc4cc3C)ncnc2n1C(C1CC1)C1CC1 [Example 5231, 6-(2-bromo-6-methylbenzofuran-5-yl)-9-dicyclopropylmethyl-8-ethylpurine] | 177 to 178 °C
CCc1nc2c(-c3cc4c(c(Br)c3C)OCC4)ncnc2n1C(C1CC1)C1CC1 [Example 5232, 6-(7-bromo-6-methyl-2,3-dihydrobenzofuran-5-yl)-9-dicyclopropylmethyl-8-ethylpurine] | 179 to 180 °C
